According to US10770169B2, “Method of providing a treatment to a subject based on a dynamic pathway map” (THE REGENTS OF THE UNIVERSITY OF CALIFORNIA, priority 2010, dated 2020):
Like-named read-outs stand apart in the source and are kept apart here.

Tested on: panel of 55 breast cancer cell lines
Assay: Cell growth inhibition assay (Cell Titer Glo, 72 h, 9 doses; GI50, TGI, LC50)
Assay type: cell-based, human
Conditions: Homo sapiens, read-out: GI50 (converted)

## Cc1cncc2cccc(S(=O)(=O)N3CCCN(C(=O)CN)C[C@@H]3C)c12 [Glycyl-H-1152]
AU565, AU565 cell line, censored GI50 values
  GI50: 7.24 µM
AU565, cell line AU565
  GI50: 7.24 µM
BT-20, BT20 cell line, censored GI50 values
  GI50: 7.08 µM
BT-20, cell line BT20
  GI50: 7.08 µM
BT-474, cell line BT474
  GI50: 66.1 µM
BT-483, cell line BT483
  GI50: 44.7 µM
CAMA-1, CAMA1 cell line, censored GI50 values
  GI50: 8.13 µM
CAMA-1, cell line CAMA1
  GI50: 8.13 µM
HCC38, HCC38 cell line, censored GI50 values
  GI50: 1.02 µM
HCC38, cell line HCC38
  GI50: 1.02 µM
HCC70, HCC70 cell line, censored GI50 values
  GI50: 0.813 µM
HCC70, cell line HCC70
  GI50: 0.813 µM
HCC1143, HCC1143 cell line, censored GI50 values
  GI50: 15.8 µM
HCC1143, cell line HCC1143
  GI50: 15.8 µM
HCC1187, HCC1187 cell line, censored GI50 values
  GI50: 0.832 µM
HCC1187, cell line HCC1187
  GI50: 0.832 µM
HCC1419, HCC1419 cell line, censored GI50 values
  GI50: 17 µM
HCC1419, cell line HCC1419
  GI50: 17 µM
HCC1428, cell line HCC1428
  GI50: 50.1 µM
HCC1500, cell line HCC1500
  GI50: 66.1 µM
HCC1937, cell line HCC1937
  GI50: 66.1 µM
HCC1954, cell line HCC1954
  GI50: 33.1 µM
HCC2185 cell line, censored GI50 values
  GI50: 2.88 µM
MCF7, cell line MCF7
  GI50: 21.4 µM
MDA-MB-134-VI, MDAMB134VI cell line, censored GI50 values
  GI50: 1.17 µM
MDA-MB-175-VII, MDAMB175VII cell line, censored GI50 values
  GI50: 33.1 µM
MDA-MB-231, MDAMB231 cell line, censored GI50 values
  GI50: 22.9 µM
MDA-MB-231, cell line MDAMB231
  GI50: 22.9 µM
MDA-MB-361, MDAMB361 cell line, censored GI50 values
  GI50: 33.1 µM
MDA-MB-361, cell line MDAMB361
  GI50: 33.1 µM
MDA-MB-415, MDAMB415 cell line, censored GI50 values
  GI50: 33.1 µM
MDA-MB-415, cell line MDAMB415
  GI50: 33.1 µM
MDA-MB-436, cell line MDAMB436
  GI50: 43.7 µM
MDA-MB-453, MDAMB453 cell line, censored GI50 values
  GI50: 28.2 µM
MDA-MB-453, cell line MDAMB453
  GI50: 28.2 µM
MDA-MB-468, MDAMB468 cell line, censored GI50 values
  GI50: 2.04 µM
MDA-MB-468, cell line MDAMB468
  GI50: 2.04 µM
SK-BR-3, cell line SKBR3
  GI50: 46.8 µM
SUM52PE, SUM52PE cell line, censored GI50 values
  GI50: 9.12 µM
SUM52PE, cell line SUM52PE
  GI50: 9.12 µM
SUM149PT, SUM149PT cell line, censored GI50 values
  GI50: 30.2 µM
SUM149PT, cell line SUM149PT
  GI50: 30.2 µM
SUM1315MO2, SUM1315MO2 cell line, censored GI50 values
  GI50: 11 µM
SUM-159-PT, SUM159PT cell line, censored GI50 values
  GI50: 1.74 µM
SUM-159-PT, cell line SUM159PT
  GI50: 1.74 µM
T47D, T47D cell line, censored GI50 values
  GI50: 15.1 µM
T47D, cell line T47D
  GI50: 15.1 µM
UACC-812, UACC812 cell line, censored GI50 values
  GI50: 38 µM
UACC-812, cell line UACC812
  GI50: 38 µM
ZR-75-1, ZR751 cell line, censored GI50 values
  GI50: 3.55 µM
ZR-75-1, cell line ZR751
  GI50: 3.55 µM
ZR-75B, cell line ZR75B
  GI50: 66.1 µM
Cell line HCC2185
  GI50: 2.88 µM
Cell line HCC3153
  GI50: 33.1 µM
Cell line MDAMB134V
  GI50: 1.17 µM
Cell line MDAMB175V
  GI50: 33.1 µM
Cell line SUM1315MO
  GI50: 11 µM
